In publication PMC6420960 (Science translational medicine, 2015):
Entries after “also recorded” stand apart in the source; their conditions may differ. Structures can show the parent of a compound that is named as a salt. Where two headings read alike, the source gives them in different places.

Legend:
HCV-Luc [1] = assay: HCV-Luc infection assay; details: for selectivity ratio: human; for anti-HCV activity (in words): NPC screen / confirmation assays; for EC90: read-out: HCV-Luc EC90
HCV-Luc [2] = assay: Time-of-addition experiment; format: cell-based, Hepatitis C virus; details: for inhibitory kinetics, time-of-addition profile: bafilomycin A1 10 nM, sofosbuvir 10 μM, 2-hour incubations; for effect on viral level, time of addition: treatment during the attachment step
HCV-Luc [3] = assay: In vitro combination evaluation; details: for CalcuSyn CI value: in combination with (S)-CCZ at or near their EC50 values; for MacSynergy Log volume: in combination with (S)-CCZ, Bliss independence model
[4] = Microsomal stability assay, mouse microsomes; format: in vitro ADME
[5] = Microsomal stability assay, human microsomes; format: in vitro ADME
Huh7.5.1 cells [6] = test system: Huh7.5.1 cells
HCV-Luc [7] = assay: HCV-Luc assay in 40% human serum; format: cell-based, Hepatitis C virus; details: read-out: protein binding adjusted EC50
[8] = day 28
HCV genotype 1b = format: in vivo, Alb-uPA/SCID mice engrafted with primary human hepatocytes
HCVsc, genotype 2a = format: cell-based, Hepatitis C virus; details: 10 μM
[9] = Cytotoxicity in the dengue RVP assay; format: cell-based
[10] = Mouse pharmacokinetics and tissue distribution, single intraperitoneal dose; details: for brain levels (in words): (S)-CCZ 50 mg/kg, (S)-nor-CCZ 10 mg/kg, single intraperitoneal dose
[11] = test system: genotype 1a replicon in Huh7.5.1 cells; format: cell-based, Hepatitis C virus; details: 10 μM
[12] = test system: genotype 1b and 2a HCV replicon cell lines; format: cell-based, Hepatitis C virus; details: 10 μM
H1-histamine receptor = H1-histamine receptor (Homo sapiens, UniProt P35367); assay: β-arrestin H1-histamine receptor assay; format: cell-based
Chain of H1-histamine receptor (P35367 whole entry): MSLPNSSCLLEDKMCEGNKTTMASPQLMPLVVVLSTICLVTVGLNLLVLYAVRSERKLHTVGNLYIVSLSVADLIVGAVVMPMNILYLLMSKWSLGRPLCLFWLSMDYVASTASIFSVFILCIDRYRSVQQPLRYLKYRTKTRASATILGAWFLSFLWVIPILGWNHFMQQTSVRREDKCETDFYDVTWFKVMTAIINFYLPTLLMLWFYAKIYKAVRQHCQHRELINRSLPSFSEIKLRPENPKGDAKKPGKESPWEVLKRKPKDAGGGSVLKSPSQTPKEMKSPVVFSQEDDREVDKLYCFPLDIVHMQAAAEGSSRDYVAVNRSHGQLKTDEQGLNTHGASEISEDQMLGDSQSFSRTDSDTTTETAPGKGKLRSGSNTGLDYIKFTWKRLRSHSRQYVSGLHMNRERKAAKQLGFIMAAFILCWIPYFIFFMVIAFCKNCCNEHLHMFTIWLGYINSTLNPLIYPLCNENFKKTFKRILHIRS

Huh7.5.1 cells [13] = test system: Huh7.5.1 cells; remark: listed apart in the source
[14] = test system: wild-type HCVcc (genotype 2a, JFH-1 strain); format: cell-based, Hepatitis C virus; details: 10 μM; compared with DMSO treatment
[15] = test system: HCV chimeric genotype viruses (1a, 1b, 2a, 2b, 3a, 4a, 5a, 6a, and 7a); assay: HCV chimeric genotype virus infection of Huh7.5.1 cells; format: cell-based, Hepatitis C virus; details: 10 μM
[16] = test system: dengue reporter virus particle; assay: Dengue reporter virus particle; format: cell-based; details: read-out: EC50 in dengue RVP assay
wild-type HCVcc = format: cell-based, Hepatitis C virus; details: primary human hepatocytes; titration, dose-dependent manner
[17] = test system: hepatitis B virus, HCV replicon, herpes simplex virus-1, human cytomegalovirus, vaccinia virus, dengue virus, influenza A (H1N1) virus, respiratory syncytial …; format: cell-based
HCVpp genotype 1a and 1b = format: cell-based, Hepatitis C virus; details: 10 μM; Huh7.5.1 cells
ATPlite assay = details: human, Huh7.5.1 cells
HIV = details: cited from earlier work
[18] = mouse, in vivo, ip, 10 mg/kg
[19] = read-out: HCV-Luc EC50, Huh7.5.1 cells, luciferase signal 48 hours after treatment
[20] = Huh7.5.1 cells, luciferase signal 48 hours after treatment

In the case of CN1CCCN(C(c2ccccc2)c2ccc(Cl)cc2)CC1 (stereo not shown) [homochlorcyclizine], the EC50 (HCV-Luc [1]; Hepatitis C virus) is reported as roughly 50 nM and the selectivity ratio (HCV-Luc [1]) is reported as 318 to 924.
In the case of Clc1ccc(Cn2c(CN3CCCC3)nc3ccccc32)cc1 [clemizole], the “anti-HCV activity (in words)” value (HCV-Luc [1]) is reported as “much less potent activity”.
With CO/C1=C\C(C)=C\[C@@H](C)[C@@H](O)[C@@H](C)C/C(C)=C/C=C/[C@H](OC)[C@@H]([C@@H](C)[C@@H](O)[C@H](C)[C@@]2(O)C[C@@H](O)[C@H](C)[C@@H](C(C)C)O2)OC1=O [Bafilomycin A1] the “inhibitory kinetics, time-of-addition profile” value (HCV-Luc [2]) was “only showed significant inhibitory effect when added during the first 2 hours of synchronous entry” and the “effect on viral level, time of addition” value (HCV-Luc [2]) was “no effect on viral level”.
In the case of O=C(O)COCCN1CCN(C(c2ccccc2)c2ccc(Cl)cc2)CC1 (stereo not shown) [Cetirizine], the “anti-HCV activity (in words)” value (HCV-Luc [1]) is reported as “not active”.
In the case of COC(=O)N[C@H](C(=O)N1CCC[C@H]1c1nc(-c2ccc(-c3ccc(-c4c[nH]c([C@@H]5CCCN5C(=O)[C@@H](NC(=O)OC)C(C)C)n4)cc3)cc2)c[nH]1)C(C)C [Daclatasvir], the “CalcuSyn CI value” (HCV-Luc [3]) is reported as 0.427 ± 0.142 and the “MacSynergy Log volume” value (HCV-Luc [3]) is reported as “+++ (strong synergy (log volume ≥ 9))”.
In the case of Clc1ccc(C(c2ccccc2)N2CCNCC2)cc1 (stereo not shown) [nor-CCZ, nor-chlorcyclizine], the “T1/2 in mice (microsomes) relative to CCZ” value [4] is reported as “more than fourfold longer”, the half-life [5] is reported as greater than 1.67 h and the “cytotoxicity compared with CCZ (in words)” value (Huh7.5.1 cells [6]) is reported as “higher cytotoxicity”. The “anti-HCV activity (in words)” value (HCV-Luc [1]) was “comparable to that of CCZ” and the selectivity ratio (HCV-Luc [1]) was 188.
For CN1CCN([C@@H](c2ccccc2)c2ccc(Cl)cc2)CC1 [(S)-CCZ], the EC50 (HCV-Luc [7]) was 240 nM, the “liver to plasma ratio” value ([8]; 2 mg/kg group) was 38 and the “liver to plasma ratio” value ([8]; 10 mg/kg group) was 41. For the same compound, the liver concentration ([8]; (S)-CCZ dose of 2 mg/kg) was 0.342 µM, the liver concentration ([8]; (S)-CCZ dose of 10 mg/kg) was 2.66 µM and the “decrease of genotype 1b virus titer” value (HCV genotype 1b; 2 mg/kg daily for 4 weeks) was “about 1 log”. For the same compound, the “reduction of HCV titers from pretreatment baseline” value (HCV genotype 1b; 50 and 10 mg/kg daily for 4 weeks, genotype 1b) was 2 log, the “HCV titers during the treatment period (drug resistance)” value (HCV genotype 1b; genotype 1b and 2a infections) was “without rebound” and the “inhibitory activity in the HCVsc assay” value (HCVsc, genotype 2a) was “strong inhibitory activity”. The CC50 [9] was greater than 31600 nM, the “ratio of liver to plasma” value ([10]; 50 mg/kg intraperitoneal, assuming liver density 1.0 g/ml) was 29.6 and the “brain levels (in words)” value [10] was “comparable to liver levels”. The “HCV replication, transient replicon” value [11] was “not inhibited”, the “inhibitory effect on HCV replicon” value [12] was “did not exert a significant inhibitory effect” and the CC50 (Huh7.5.1 cells [6]) was 33400 ± 2440 nM. The “Antihistamine activity at 10 nM” value (H1-histamine receptor) was 41.70%, the “cytotoxicity after continuous treatment for 21 days” value (Huh7.5.1 cells [13]; 10 μM) was “low cytotoxicity” and the “cytotoxicity after continuous treatment for 21 days” value (Huh7.5.1 cells [13]; 1.0 and 5.0 μM) was “no cytotoxicity”. For the same compound, the “inhibition of infection, time of addition” value (“inhibition of infection” below) (HCV-Luc [2]; added 2 or 3 hours after entry) was “no significant inhibition”, the “inhibition of infection” value (HCV-Luc [2]; added 1 hour after synchronous entry) was “Less inhibitory effect” and the “inhibition of infection” value (HCV-Luc [2]; added during viral attachment at 4°C for 2 hours or during the first 2 hours of synchronous entry at 37°C) was “potent inhibition”. For the same compound, the EC50 (HCV-Luc [1]; [19]) was 24 ± 9 nM, the EC90 (HCV-Luc [1]; [20]) was 1440 ± 430 nM and the “Intracellular and extracellular viral RNA levels” value [14] was “significantly reduced”. The “extracellular HCV RNA levels and infectivity (TCID50/ml)” value [15] was “inhibited”, the EC50 [16] was 1880 nM and the “intracellular HCV RNA level” value (wild-type HCVcc) was “inhibited”. For the same compound, the “antiviral activity in NIAID antiviral screen” value [17] was “little or no antiviral activity” and the “inhibitory effect on HCVpp entry” value (HCVpp genotype 1a and 1b) was “no significant inhibitory effect”.
In the case of CN1CCN(C(c2ccccc2)c2ccc(Cl)cc2)CC1 (racemic) [Racemic CCZ, chlorcyclizine HCl], the CC50 (ATPlite assay) is given as 49800 ± 17200 nM, the “activity against HIV” value (HIV) is given as “reported activity against HIV” and the “Antihistamine activity at 10 nM” value (H1-histamine receptor) is given as 72.60%. It also gave an EC50 (HCV-Luc [1]; Hepatitis C virus) of roughly 50 nM, an EC50 (HCV-Luc [1]; Hepatitis C virus, Huh-7.5.1, 48 h, read-out: HCV-Luc EC50) of 44 ± 11 nM and an EC90 (HCV-Luc [1]; Hepatitis C virus, Huh-7.5.1, 48 h) of 1400 ± 450 nM. The “Intracellular and extracellular viral RNA levels” value [14] was “significantly reduced”.
For CN1CCN(C(c2ccccc2)c2ccccc2)CC1 [Cyclizine], the “lower activity than CCZ” value (HCV-Luc [1]; relative to CCZ) was 10 fold.
For CCC[C@H](NC(=O)[C@@H]1[C@H]2CCC[C@H]2CN1C(=O)[C@@H](NC(=O)[C@@H](NC(=O)c1cnccn1)C1CCCCC1)C(C)(C)C)C(=O)C(=O)NC1CC1 [Telaprevir], the “CalcuSyn CI value” (HCV-Luc [3]) was 0.426 ± 0.138 and the “MacSynergy Log volume” value (HCV-Luc [3]) was “+++ (strong synergy (log volume ≥ 9))”.
Compound O[C@H]1[C@H]2c3cc4c(cc3CN3CCC(=C[C@@H]1O)[C@H]23)OCO4 [Lycorine-HCl, reference compound] has a CC50 [9] greater than 31600 nM and an EC50 [16] of 40.6 nM.
For IFN-α, the “CalcuSyn CI value” (HCV-Luc [3]) was 0.609 ± 0.128 and the “MacSynergy Log volume” value (HCV-Luc [3]) was “+++ (strong synergy (log volume ≥ 9))”.
With Clc1ccc([C@H](c2ccccc2)N2CCNCC2)cc1 [(S)-Nor-CCZ] the liver concentration ([8]; (S)-CCZ dose of 2 mg/kg) was 3.16 µM, the liver concentration ([8]; (S)-CCZ dose of 10 mg/kg) was 12.1 µM and the “ratio of average concentration in liver to plasma” value ([10]; 10 mg/kg intraperitoneal) was 60.7. The “brain levels (in words)” value [10] was “comparable to liver levels”, the CC50 (Huh7.5.1 cells [6]) was 9310 ± 40 nM and the “Antihistamine activity at 10 nM” value (H1-histamine receptor) was 2.24%. The EC50 (HCV-Luc [1]; [19]) was 34 ± 12 nM, the EC90 (HCV-Luc [1]; [20]) was 578 ± 99 nM and the “T1/2 compared to (S)-CCZ (in words)” value [18] was “longer T1/2”.
For NC(=O)c1ncn([C@@H]2O[C@H](CO)[C@@H](O)[C@H]2O)n1 [Ribavirin], the “CalcuSyn CI value” (HCV-Luc [3]) was 0.630 ± 0.106 and the “MacSynergy Log volume” value (HCV-Luc [3]) was “+++ (strong synergy (log volume ≥ 9))”.
In the case of CN1CCN([C@H](c2ccccc2)c2ccc(Cl)cc2)CC1 [(R)-CCZ], the CC50 (Huh7.5.1 cells [6]) is reported as 37500 ± 4150 nM, the “Antihistamine activity at 10 nM” value (H1-histamine receptor) is reported as 88.00% and the EC50 (HCV-Luc [1]; [19]) is reported as 20 ± 5 nM. The EC90 (HCV-Luc [1]; [20]) was 1090 ± 370 nM and the “Intracellular and extracellular viral RNA levels” value [14] was “significantly reduced”.
OCCOCCN1CCN(C(c2ccccc2)c2ccc(Cl)cc2)CC1 (stereo not shown) [hydroxyzine] gave an EC50 (HCV-Luc [1]; Hepatitis C virus) of roughly 50 nM and a selectivity ratio (HCV-Luc [1]) of 318 to 924.
With NC(=O)COCCN1CCN(C(c2ccccc2)c2ccc(Cl)cc2)CC1 (stereo not shown) [cetirizine amide] the EC50 (HCV-Luc [1]; [19]) was 103 nM.
With CC(C)(C)NC(=O)N[C@H](C(=O)N1C[C@H]2[C@@H]([C@H]1C(=O)NC(CC1CCC1)C(=O)C(N)=O)C2(C)C)C(C)(C)C (stereo partly shown) [Boceprevir] the “CalcuSyn CI value” (HCV-Luc [3]) was 0.691 ± 0.114 and the “MacSynergy Log volume” value (HCV-Luc [3]) was “+++ (strong synergy (log volume ≥ 9))”.
In the case of CC(C)OC(=O)[C@H](C)N[P@](=O)(OC[C@H]1O[C@@H](n2ccc(=O)[nH]c2=O)[C@](C)(F)[C@@H]1O)Oc1ccccc1 [Sofosbuvir], the “CalcuSyn CI value” (HCV-Luc [3]) is reported as 0.362 ± 0.075, the “MacSynergy Log volume” value (HCV-Luc [3]) is reported as “+++ (strong synergy (log volume ≥ 9))” and the “inhibitory kinetics, time-of-addition profile” value (HCV-Luc [2]) is reported as “inhibited HCVcc infection when added at all the time points except during the attachment stage”. The “effect on viral level, time of addition” value (HCV-Luc [2]) was “no effect on viral level”.
In the case of NCCc1c[nH]cn1 [Histamine], the “anti-HCV activity (in words)” value (HCV-Luc [1]) is reported as “no anti-HCV activity; also recorded: no effect on HCV infection”.
